Reference: US9409905B2, “Antibacterial compounds and methods for use” (PTC THERAPEUTICS, INC., priority 2011, dated 2016)
Converted amounts (≈) assume the structure as drawn.

Tests used:
E. coli LZ3111 = test: Antibacterial activity, MIC, quinolone resistant strain (Table 2); assay type: cell-based; conditions: Escherichia coli, LZ3111, read-out: MIC LZ3111
How it was run: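 Broth microdilution. Read-out: MIC in μg/mL, taken as lowest concentration with no macroscopically visible growth.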

A. baumannii MXX2240 = test: Antibacterial activity, MIC, resistant strain (Table 4); assay type: cell-based; conditions: Acinetobacter baumannii, MXX2240; resistant A. baumannii MMX2240, multi-drug resistant clinical isolate; read-out: MIC, MMX2240
How it was run: (§1)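 MIC in μg/mL by microbroth dilution, scored as the lowest level that suppresses visible growth.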

K. pneumoniae MXX1232 = test: as above; assay type: cell-based; conditions: Klebsiella pneumoniae, MXX1232; resistant K. pneumoniae MMX1232, multi-drug resistant clinical isolate; read-out: MIC, MMX1232
How it was run: as §1

E. coli ELZ4251 = test: Antibacterial activity, MIC, multi-drug resistant clinical isolate (Table 3); assay type: cell-based; conditions: Escherichia coli
How it was run: (§2)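 MIC (μg/mL) read as lowest concentration with no macroscopically visible growth, determined by microbroth dilution.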

E. coli ELZ4000 = test: as above; assay type: cell-based; conditions: Escherichia coli, ELZ4000, read-out: MIC ELZ4000
How it was run: as §2

[1] = system: Neisseria meningitidis (N. meningitidis) 13090; test: Antibacterial activity, MIC (Table 8); assay type: cell-based
Source text: (§3) The antibacterial activity from a microbroth dilution method may be presented as the minimum inhibitory concentration (MIC in μg/mL). The MIC value is the lowest concentration of drug which prevents macroscopically visible growth under test conditions.
(§4) Antibacterial activity of test compounds against the Gram-negative bacteria Haemophilus influenzae (H. influenzae) 49247 is shown in Table 6, Moraxella catarrhalis (M. catarrhalis) 25238 is shown in Table 7 and Neisseria meningitidis (N. meningitidis) 13090 is shown in Table 8.

[2] = system: Pseudomonas aeruginosa (P. aeruginosa) 27853; test: Antibacterial activity, MIC (Table 5); assay type: cell-based; conditions: P. aeruginosa 27853, read-out: MIC, 27853
How it was run: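 Microbroth dilution; MIC (μg/mL) = lowest concentration with no macroscopically visible growth.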

[3] = system: Moraxella catarrhalis (M. catarrhalis) 25238; test: Antibacterial activity, MIC (Table 7); assay type: cell-based
Source text: as §3, §4

E. coli 25922 = test: Antibacterial activity, microbroth dilution MIC (Table 1); assay type: cell-based, Escherichia coli; conditions: Escherichia coli; microbroth dilution; control Gram-negative E. coli 25922 strain; read-out: MIC, 25922
How it was run: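 In a microbroth dilution test, the minimum inhibitory concentration was defined as the lowest compound level preventing growth seen by eye, and was given in μg/mL.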

[4] = system: Haemophilus influenzae (H. influenzae) 49247; test: Antibacterial activity, MIC (Table 6); assay type: cell-based
Source text: as §3, §4

[5] = system: Staphylococcus aureus (S. aureus) 29213; test: Antibacterial activity, microbroth dilution MIC (Table 1); assay type: cell-based; conditions: microbroth dilution, Gram-positive S. aureus 29213, read-out: MIC, 29213
How it was run: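 Broth microdilution against S. aureus 29213, E. coli 25922 and hypersensitive E. coli BAS849. MIC in μg/mL is the lowest drug concentration preventing macroscopically visible growth under test conditions.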

[6] = system: Escherichia coli (E. coli) BAS849; test: as above; assay type: cell-based; conditions: microbroth dilution, super sensitive Gram-negative E. coli BAS849, read-out: MIC, BAS849
How it was run: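 Read-out: visual absence of growth. The lowest concentration meeting this gives the MIC, expressed in μg/mL, with microbroth dilution as the method.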

[7] = system: Acinetobacter baumannii (A. baumannii) BAA747; test: Antibacterial activity, MIC (Table 4); assay type: cell-based; conditions: A. baumannii BAA747, read-out: MIC, BAA747
How it was run: as §1

[8] = system: Klebsiella pneumoniae (K. pneumoniae) 35657; test: Antibacterial activity, MIC (Table 4); assay type: cell-based; conditions: K. pneumoniae 35657, read-out: MIC, 35657
How it was run: as §1

## CCc1c(-c2ccc3c(c2)cc(CNC2CC2)n3C)[nH]c(=O)c(C(=O)O)c1O.Cl [Cpd 228, 6-(2-((cyclopropylamino)methyl)-1-methyl-1H-indol-5-yl)-5-ethyl-4-hydroxy-2-oxo-1,2-dihydropyridine-3-carboxylic acid hydrochloride]
E. coli LZ3111
  MIC: 1 to 3.5 µg/mL
A. baumannii MXX2240
  MIC: 1 to 3.5 µg/mL
K. pneumoniae MXX1232
  MIC: 12.5 to 150 µg/mL
E. coli ELZ4251
  MIC: 1 to 3.5 µg/mL
E. coli ELZ4000
  MIC: 3.5 to 12.5 µg/mL
[1]
  MIC: < 1 µg/mL
[2]
  MIC: 3.5 to 12.5 µg/mL
[3]
  MIC: < 1 µg/mL
E. coli 25922
  MIC: < 1 µg/mL
[4]
  MIC: < 1 µg/mL
[5]
  MIC: 3.5 to 12.5 µg/mL
[6]
  MIC: < 1 µg/mL
[7]
  MIC: < 1 µg/mL
[8]
  MIC: 1 to 3.5 µg/mL

## CCc1c(-c2ccc3c(c2)cc(CN2CCC(N(C)C)CC2)n3C)[nH]c(=O)c(C(=O)O)c1O [Cpd 248, 6-(2-((4-(dimethylamino)piperidin-1-yl)methyl)-1-methyl-1H-indol-5-yl)-5-ethyl-4-hydroxy-2-oxo-1,2-dihydropyridine-3-carboxylic acid]
E. coli LZ3111
  MIC: 3.5 to 12.5 µg/mL (≈ 7.73 to 27.6 µM)
A. baumannii MXX2240
  MIC: 12.5 to 150 µg/mL (≈ 27.6 to 331 µM)
K. pneumoniae MXX1232
  MIC: 12.5 to 150 µg/mL (≈ 27.6 to 331 µM)
E. coli ELZ4251
  MIC: 12.5 to 150 µg/mL (≈ 27.6 to 331 µM)
E. coli ELZ4000
  MIC: 12.5 to 150 µg/mL (≈ 27.6 to 331 µM)
[1]
  MIC: < 1 µg/mL
[2]
  MIC: 12.5 to 150 µg/mL (≈ 27.6 to 331 µM)
[3]
  MIC: 1 to 3.5 µg/mL (≈ 2.21 to 7.73 µM)
E. coli 25922
  MIC: < 1 µg/mL
[4]
  MIC: < 1 µg/mL
[5]
  MIC: 3.5 to 12.5 µg/mL (≈ 7.73 to 27.6 µM)
[6]
  MIC: < 1 µg/mL
[7]
  MIC: 1 to 3.5 µg/mL (≈ 2.21 to 7.73 µM)
[8]
  MIC: 1 to 3.5 µg/mL (≈ 2.21 to 7.73 µM)

## CCc1c(-c2ccc3c(c2)cc(CNCc2ccc(OC)cc2)n3C)[nH]c(=O)c(C(=O)O)c1O [Cpd 291, 5-ethyl-4-hydroxy-6-(2-((4-methoxybenzylamino)methyl)-1-methyl-1H-indol-5-yl)-2-oxo-1,2-dihydropyridine-3-carboxylic acid]
E. coli LZ3111
  MIC: 1 to 3.5 µg/mL (≈ 2.17 to 7.58 µM)
A. baumannii MXX2240
  MIC: 1 to 3.5 µg/mL (≈ 2.17 to 7.58 µM)
K. pneumoniae MXX1232
  MIC: 12.5 to 150 µg/mL (≈ 27.1 to 325 µM)
E. coli ELZ4251
  MIC: 12.5 to 150 µg/mL (≈ 27.1 to 325 µM)
E. coli ELZ4000
  MIC: 12.5 to 150 µg/mL (≈ 27.1 to 325 µM)
[1]
  MIC: < 1 µg/mL
[2]
  MIC: 12.5 to 150 µg/mL (≈ 27.1 to 325 µM)
[3]
  MIC: < 1 µg/mL
E. coli 25922
  MIC: < 1 µg/mL
[4]
  MIC: < 1 µg/mL
[5]
  MIC: 3.5 to 12.5 µg/mL (≈ 7.58 to 27.1 µM)
[6]
  MIC: < 1 µg/mL
[7]
  MIC: 1 to 3.5 µg/mL (≈ 2.17 to 7.58 µM)
[8]
  MIC: 3.5 to 12.5 µg/mL (≈ 7.58 to 27.1 µM)

## CCc1c(-c2ccc3c(c2)cc(CN2CC4CCCNC4C2)n3C)[nH]c(=O)c(C(=O)O)c1O (stereo not drawn) [Cpd 184, 5-ethyl-4-hydroxy-6-(1-methyl-2-((tetrahydro-1H-pyrrolo[3,4-b]pyridin-6(2H,7H,7aH)-yl)methyl)-1H-indol-5-yl)-2-oxo-1,2-dihydropyridine-3-carboxylic acid]
E. coli LZ3111
  MIC: 1 to 3.5 µg/mL (≈ 2.22 to 7.77 µM)
A. baumannii MXX2240
  MIC: 12.5 to 150 µg/mL (≈ 27.7 to 333 µM)
K. pneumoniae MXX1232
  MIC: 12.5 to 150 µg/mL (≈ 27.7 to 333 µM)
E. coli ELZ4251
  MIC: 3.5 to 12.5 µg/mL (≈ 7.77 to 27.7 µM)
E. coli ELZ4000
  MIC: 12.5 to 150 µg/mL (≈ 27.7 to 333 µM)
[1]
  MIC: < 1 µg/mL
[2]
  MIC: 12.5 to 150 µg/mL (≈ 27.7 to 333 µM)
[3]
  MIC: 1 to 3.5 µg/mL (≈ 2.22 to 7.77 µM)
E. coli 25922
  MIC: 1 to 3.5 µg/mL (≈ 2.22 to 7.77 µM)
[4]
  MIC: 1 to 3.5 µg/mL (≈ 2.22 to 7.77 µM)
[5]
  MIC: 12.5 to 150 µg/mL (≈ 27.7 to 333 µM)
[6]
  MIC: < 1 µg/mL
[7]
  MIC: 3.5 to 12.5 µg/mL (≈ 7.77 to 27.7 µM)
[8]
  MIC: 1 to 3.5 µg/mL (≈ 2.22 to 7.77 µM)

## CCc1c(-c2ccc3c(c2)cc(CN2CCC[C@H](N)C2)n3C)[nH]c(=O)c(C(=O)O)c1O [Cpd 253, (S)-6-(2-((3-aminopiperidin-1-yl)methyl)-1-methyl-1H-indol-5-yl)-5-ethyl-4-hydroxy-2-oxo-1,2-dihydropyridine-3-carboxylic acid]
E. coli LZ3111
  MIC: 3.5 to 12.5 µg/mL (≈ 8.24 to 29.4 µM)
A. baumannii MXX2240
  MIC: 12.5 to 150 µg/mL (≈ 29.4 to 353 µM)
K. pneumoniae MXX1232
  MIC: 12.5 to 150 µg/mL (≈ 29.4 to 353 µM)
E. coli ELZ4251
  MIC: 12.5 to 150 µg/mL (≈ 29.4 to 353 µM)
E. coli ELZ4000
  MIC: 12.5 to 150 µg/mL (≈ 29.4 to 353 µM)
[1]
  MIC: 1 to 3.5 µg/mL (≈ 2.36 to 8.24 µM)
[2]
  MIC: 12.5 to 150 µg/mL (≈ 29.4 to 353 µM)
[3]
  MIC: 3.5 to 12.5 µg/mL (≈ 8.24 to 29.4 µM)
E. coli 25922
  MIC: 1 to 3.5 µg/mL (≈ 2.36 to 8.24 µM)
[4]
  MIC: 3.5 to 12.5 µg/mL (≈ 8.24 to 29.4 µM)
[5]
  MIC: 12.5 to 150 µg/mL (≈ 29.4 to 353 µM)
[6]
  MIC: < 1 µg/mL
[7]
  MIC: 12.5 to 150 µg/mL (≈ 29.4 to 353 µM)
[8]
  MIC: 1 to 3.5 µg/mL (≈ 2.36 to 8.24 µM)

## CCNCc1cc2cc(-c3[nH]c(=O)c(C(=O)O)c(O)c3CC)ccc2n1C [Cpd 165, 5-ethyl-6-(2-((ethylamino)methyl)-1-methyl-1H-indol-5-yl)-4-hydroxy-2-oxo-1,2-dihydropyridine-3-carboxylic acid]
E. coli LZ3111
  MIC: 1 to 3.5 µg/mL (≈ 2.71 to 9.47 µM)
A. baumannii MXX2240
  MIC: 3.5 to 12.5 µg/mL (≈ 9.47 to 33.8 µM)
K. pneumoniae MXX1232
  MIC: 12.5 to 150 µg/mL (≈ 33.8 to 406 µM)
E. coli ELZ4251
  MIC: 1 to 3.5 µg/mL (≈ 2.71 to 9.47 µM)
E. coli ELZ4000
  MIC: 3.5 to 12.5 µg/mL (≈ 9.47 to 33.8 µM)
[1]
  MIC: < 1 µg/mL
[2]
  MIC: 3.5 to 12.5 µg/mL (≈ 9.47 to 33.8 µM)
[3]
  MIC: < 1 µg/mL
E. coli 25922
  MIC: < 1 µg/mL
[4]
  MIC: < 1 µg/mL
[5]
  MIC: 3.5 to 12.5 µg/mL (≈ 9.47 to 33.8 µM)
[6]
  MIC: < 1 µg/mL
[7]
  MIC: < 1 µg/mL
[8]
  MIC: < 1 µg/mL
